Earlier results on one molecule are cited in patent US20190100806A1, “MARKER FOR PREDICTING TREATMENT RESPONSE TO ANTI-CANCER AGENT IN SOLID CANCER PATIENTS” (DAEWOONG PHARMACEUTICAL CO., LTD., priority 2016, published 2019).

Data set [1] has as its system Akt phosphorylation (Ser473). The note with it: single dose, mouse model xenografted with PC-3 cells.
Data set [2] has as its system PC-3 (human prostate cancer) cells. The settings on record: PC-3 cells, PTEN-deficient; read-out: median effective concentration (EC50).
For data set [3], the system named is HCC70 (human breast ductal carcinoma) cells. The settings on record: PTEN-deficient, read-out: median effective concentration (EC50).
Data set [4] relates to RAC serine/threonine-protein kinase (Akt) phosphorylation. The settings on record: mouse models xenografted with human PTEN-deficient tumor cells.

As for `Cc1c(Cn2c(C)nc3c(C(=O)O)cc(N4CCOCC4)cc32)cccc1C(F)(F)F` [GSK-2636771], the “Akt phosphorylation (Ser473)” value in data set [1] is reported as “reduce Akt phosphorylation (Ser473)”. Further, the EC50 in data set [2] was 0.036 µM; in data set [3], 0.072 µM. Also, the “phosphorylation of Akt” value in data set [4] is recorded as “inhibits the phosphorylation of RAC serine/threonine-protein kinase (Akt) in a dose-dependent manner”.
